Source: patent US20110071180A1, “SUB-TYPE SELECTIVE AMIDES OF DIAZABICYCLOALKANES” (Targacept, Inc., priority 2008, published 2011)
Where two headings read alike, the source gives them in different places.

Legend:
rat α4β2 nAChR subtype = biological target: T1, rat α4β2 nAChR subtype (Rattus norvegicus, UniProt P09483+P12390); assay: Radioligand binding, [3H]nicotine, rat cortex membranes; settings: [3H]nicotine 5 nM
T1 construct: The cerebral cortex was removed and placed in 20 volumes (weight:volume) of ice-cold preparative buffer; from tissue; host or cells: rat cerebral cortex membranes (female Sprague-Dawley)
Experimental: Preparation of Membranes from Rat Cortex: Rats (Female, Sprague-Dawley), weighing 150-250 g, were maintained on a 12 h light/dark cycle and were allowed free access to water and food supplied by PMI Nutrition International, Inc. Animals were anesthetized with 70% CO2, and then decapitated. Brains were removed and placed on an ice-cold platform. The cerebral cortex was removed and placed in 20 volumes (weight:volume) of ice-cold preparative buffer (137 mM NaCl, 10.7 mM KCl, 5.8 mM KH2PO4, 8 mM Na2HPO4, 20 mM HEPES (free acid), 5 mM iodoacetamide, 1.6 mM EDTA, pH 7.4); PMSF, dissolved in methanol to a final concentration of 100 μM, was added and the suspension was homogenized by Polytron. The homogenate was centrifuged at 18,000×g for 20 min at 4° C. and the resulting pellet was re-suspended in 20 volumes of ice-cold water. After 60 min incubation on ice, a new pellet was collected by centrifugation at 18,000×g for 20 min at 4° C. The final pellet was re-suspended in 10 volumes of buffer and stored at −20° C.
(§1) On the day of the assay, the frozen membranes were thawed and spun at 48,000×g for 20 min. The supernatant was decanted and discarded. The pellet was resuspended in Dulbecco's phosphate buffered saline (PBS, Life Technologies) pH 7.4 and homogenized with the Polytron for 6 seconds. Protein concentrations were determined using a Pierce BCA Protein Assay Kit, with bovine serum albumin as the standard (Pierce Chemical Company, Rockford, Ill.).
(§2) Membrane preparations (approximately 50 μg for human and 200-300 μg protein for rat α4β2) were incubated in PBS (50 μL and 100 μL respectively) in the presence of competitor compound (0.01 nM to 100 μM) and 5 nM [^3H]nicotine for 2-3 hours on ice. Incubation was terminated by rapid filtration on a multi-manifold tissue harvester (Brandel, Gaithersburg, Md.) using GF/B filters presoaked in 0.33% polyethyleneimine (w/v) to reduce non-specific binding. Tissue was rinsed 3 times in PBS, pH 7.4. Scintillation fluid was added to filters containing the washed tissue and allowed to equilibrate. Filters were then counted to determine radioactivity bound to the membranes by liquid scintillation counting (2200CA Tri-Carb LSC, Packard Instruments, 50% efficiency or Wallac Trilux 1450 MicroBeta, 40% efficiency, Perkin Elmer).
(§3) Data were expressed as disintegrations per minute (DPMs). Within each assay, each point had 2-3 replicates. The replicates for each point were averaged and plotted against the log of the drug concentration. IC50, which is the concentration of the compound that produces 50% inhibition of binding, was determined by least squares non-linear regression. Ki values were calculated using the Cheng-Prussof equation (1973): […]

human α4β2 nAChR subtype = biological target: T2, human α4β2 nAChR subtype (Homo sapiens, UniProt P17787+P43681); assay: Radioligand binding, [3H]nicotine, membranes from SH-EP1/human α4β2 clonal cells; settings: [3H]nicotine 5 nM, SH-EP1/human α4β2 cell membranes
T2 construct: expressed in transfected cells; host or cells: SH-EP1 clonal cells expressing human α4β2
Experimental: Preparation of membranes from SH-EP1/human α4β2 clonal cells: Cell pellets from 40 150 mm culture dishes were pooled, and homogenized by Polytron (Kinematica GmbH, Switzerland) in 20 milliliters of ice-cold preparative buffer. The homogenate was centrifuged at 48,000 g for 20 minutes at 4° C. The resulting pellet was re-suspended in 20 mL of ice-cold preparative buffer and stored at −20° C.
as §1, §2, §3

α7 nAChR subtype = biological target: T3, α7 nAChR subtype (Rattus norvegicus, UniProt Q05941); assay: Radioligand binding, [3H]MLA, rat hippocampus membranes; settings: for inhibition at 5 µM: read-out: α7 high through-put screening (HTS) result
T3 construct: The hippocampus was removed and placed in 10 volumes (weight:volume) of ice-cold preparative buffer; from tissue; host or cells: rat hippocampus membranes (female Sprague-Dawley)
Experimental: Rats (female, Sprague-Dawley), weighing 150-250 g, were maintained on a 12 h light/dark cycle and were allowed free access to water and food supplied by PMI Nutrition International, Inc. Animals were anesthetized with 70% CO2, then decapitated. Brains were removed and placed on an ice-cold platform. The hippocampus was removed and placed in 10 volumes (weight:volume) of ice-cold preparative buffer (137 mM NaCl, 10.7 mM KCl, 5.8 mM KH2PO4, 8 mM Na2HPO4, 20 mM HEPES (free acid), 5 mM iodoacetamide, 1.6 mM EDTA, pH 7.4); PMSF, dissolved in methanol to a final concentration of 100 μM, was added and the tissue suspension was homogenized by Polytron. The homogenate was centrifuged at 18,000×g for 20 min at 4° C. and the resulting pellet was re-suspended in 10 volumes of ice-cold water. After 60 min incubation on ice, a new pellet was collected by centrifugation at 18,000×g for 20 min at 4° C. The final pellet was re-suspended in 10 volumes of buffer and stored at −20° C. On the day of the assay, tissue was thawed, centrifuged at 18,000×g for 20 min, and then re-suspended in ice-cold PBS (Dulbecco's Phosphate Buffered Saline, 138 mM NaCl, 2.67 mM KCl, 1.47 mM KH2PO4, 8.1 mM Na2HPO4, 0.9 mM CaCl2, 0.5 mM MgCl2, Invitrogen/Gibco, pH 7.4) to a final concentration of approximately 2 mg protein/mL. Protein was determined by the method of Lowry et al., J. Biol. Chem. 193: 265 (1951), using bovine serum albumin as the standard.
The binding of [^3H]MLA was measured using a modification of the methods of Davies et al., Neuropharmacol. 38: 679 (1999). [^3H]MLA (Specific Activity=25-35 Ci/mmol) was obtained from Tocris. The binding of [^3H]MLA was determined using a 2 h incubation at 21° C. Incubations were conducted in 48-well micro-titre plates and contained about 200 μg of protein per well in a final incubation volume of 300 μL. The incubation buffer was PBS and the final concentration of [^3H]MLA was 5 nM. The binding reaction was terminated by filtration of the protein containing bound ligand onto glass fiber filters (GF/B, Brandel) using a Brandel Tissue Harvester at room temperature. Filters were soaked in de-ionized water containing 0.33% polyethyleneimine to reduce non-specific binding. Each filter was washed with PBS (3×1 mL) at room temperature. Non-specific binding was determined by inclusion of 50 μM non-radioactive MLA in selected wells.
The inhibition of [^3H]MLA binding by test compounds was determined by including seven different concentrations of the test compound in selected wells. Each concentration was replicated in triplicate. IC50 values were estimated as the concentration of compound that inhibited 50 percent of specific [^3H]MLA binding. Inhibition constants (Ki values), reported in nM, were calculated from the IC50 values using the method of Cheng et al., Biochem. Pharmacol. 22: 3099-3108 (1973).

[1] = [3H]MLA 5 nM, rat hippocampus membranes, read-out: α7 Ki

T3 sequence (Q05941 23-502): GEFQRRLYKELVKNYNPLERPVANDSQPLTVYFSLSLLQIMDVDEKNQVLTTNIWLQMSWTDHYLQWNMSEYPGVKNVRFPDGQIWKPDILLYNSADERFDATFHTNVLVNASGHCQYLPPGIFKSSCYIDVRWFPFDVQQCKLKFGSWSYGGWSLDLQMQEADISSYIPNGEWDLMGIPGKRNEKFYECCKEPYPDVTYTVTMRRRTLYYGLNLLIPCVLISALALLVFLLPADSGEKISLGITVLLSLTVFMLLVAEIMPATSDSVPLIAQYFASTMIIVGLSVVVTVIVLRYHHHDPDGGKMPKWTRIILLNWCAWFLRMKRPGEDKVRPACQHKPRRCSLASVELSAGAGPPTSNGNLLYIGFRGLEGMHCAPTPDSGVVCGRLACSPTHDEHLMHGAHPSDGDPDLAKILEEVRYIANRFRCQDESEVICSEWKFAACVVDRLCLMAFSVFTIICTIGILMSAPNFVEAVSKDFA
T1 sequence (P09483 31-630): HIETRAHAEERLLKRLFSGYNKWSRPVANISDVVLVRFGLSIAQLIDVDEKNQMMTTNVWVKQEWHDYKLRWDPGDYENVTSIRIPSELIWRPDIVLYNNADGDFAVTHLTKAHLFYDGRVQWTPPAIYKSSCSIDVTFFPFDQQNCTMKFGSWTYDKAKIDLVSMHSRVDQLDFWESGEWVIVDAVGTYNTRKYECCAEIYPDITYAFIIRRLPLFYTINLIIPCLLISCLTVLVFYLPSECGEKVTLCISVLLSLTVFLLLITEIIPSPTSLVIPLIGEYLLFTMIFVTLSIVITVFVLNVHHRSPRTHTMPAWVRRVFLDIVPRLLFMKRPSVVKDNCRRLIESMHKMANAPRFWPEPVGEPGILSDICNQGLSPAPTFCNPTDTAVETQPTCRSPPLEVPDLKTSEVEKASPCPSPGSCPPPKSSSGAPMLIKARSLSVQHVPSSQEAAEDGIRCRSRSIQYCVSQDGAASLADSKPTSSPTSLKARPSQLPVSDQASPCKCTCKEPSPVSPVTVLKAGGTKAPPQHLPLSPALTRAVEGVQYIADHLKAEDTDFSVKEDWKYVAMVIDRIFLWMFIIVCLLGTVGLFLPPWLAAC
T1 sequence (P12390 25-500): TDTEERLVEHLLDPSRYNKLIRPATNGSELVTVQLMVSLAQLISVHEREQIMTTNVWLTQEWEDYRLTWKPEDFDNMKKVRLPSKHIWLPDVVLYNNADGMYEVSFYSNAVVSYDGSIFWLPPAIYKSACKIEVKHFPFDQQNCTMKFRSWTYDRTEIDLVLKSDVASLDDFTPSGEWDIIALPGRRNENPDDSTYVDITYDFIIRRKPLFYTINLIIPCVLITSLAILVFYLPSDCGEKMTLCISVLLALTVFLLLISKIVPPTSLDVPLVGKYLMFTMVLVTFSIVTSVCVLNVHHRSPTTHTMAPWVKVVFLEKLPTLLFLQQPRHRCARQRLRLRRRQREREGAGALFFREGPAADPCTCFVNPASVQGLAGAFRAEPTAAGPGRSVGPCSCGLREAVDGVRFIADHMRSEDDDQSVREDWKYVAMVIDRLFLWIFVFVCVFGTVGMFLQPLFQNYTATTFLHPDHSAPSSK
T2 sequence (P43681 29-627 limits assumed): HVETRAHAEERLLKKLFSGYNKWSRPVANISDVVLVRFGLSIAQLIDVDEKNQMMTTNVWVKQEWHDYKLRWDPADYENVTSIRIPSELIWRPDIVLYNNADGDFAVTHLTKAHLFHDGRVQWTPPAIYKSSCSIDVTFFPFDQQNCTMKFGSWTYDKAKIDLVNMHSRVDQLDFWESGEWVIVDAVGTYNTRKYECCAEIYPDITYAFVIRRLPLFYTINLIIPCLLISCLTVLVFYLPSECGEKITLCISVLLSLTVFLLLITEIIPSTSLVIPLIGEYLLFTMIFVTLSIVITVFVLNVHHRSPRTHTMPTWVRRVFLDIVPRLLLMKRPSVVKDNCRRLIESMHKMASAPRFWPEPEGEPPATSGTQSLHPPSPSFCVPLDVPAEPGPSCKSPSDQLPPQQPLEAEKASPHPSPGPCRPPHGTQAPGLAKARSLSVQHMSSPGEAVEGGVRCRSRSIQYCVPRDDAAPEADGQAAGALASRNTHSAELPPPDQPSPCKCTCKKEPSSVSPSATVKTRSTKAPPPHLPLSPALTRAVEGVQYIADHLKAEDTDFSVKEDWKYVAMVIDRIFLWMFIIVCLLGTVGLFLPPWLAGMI
T2 sequence (P17787 26-502): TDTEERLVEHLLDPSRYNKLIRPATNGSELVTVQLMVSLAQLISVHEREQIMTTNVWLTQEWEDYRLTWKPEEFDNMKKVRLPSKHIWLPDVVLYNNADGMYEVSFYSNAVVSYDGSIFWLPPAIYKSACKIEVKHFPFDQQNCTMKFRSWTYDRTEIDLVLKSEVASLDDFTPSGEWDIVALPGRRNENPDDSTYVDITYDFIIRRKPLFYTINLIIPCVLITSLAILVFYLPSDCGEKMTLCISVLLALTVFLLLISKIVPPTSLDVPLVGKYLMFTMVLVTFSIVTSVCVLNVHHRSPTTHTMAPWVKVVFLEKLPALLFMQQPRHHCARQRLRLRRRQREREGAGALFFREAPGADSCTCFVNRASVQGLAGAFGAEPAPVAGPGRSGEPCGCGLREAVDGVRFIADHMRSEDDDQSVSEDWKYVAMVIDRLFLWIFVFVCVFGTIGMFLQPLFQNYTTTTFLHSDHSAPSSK

SMILES | Ki (rat α4β2 nAChR subtype) [nM] | Ki (human α4β2 nAChR subtype) [nM] | inhibition at 5 µM (α7 nAChR subtype) [%] | Ki (α7 nAChR subtype; α7 Ki) [nM] | Ki (α7 nAChR subtype; [1]) [nM]
O=C(C1CC12CCC2)N1CC2CNCC2C1 (stereo not drawn) [Example 10-26] | 6.3 | 4 | < 50 |  | 
O=C(CO)N1CC2CNCC2C1 (stereo not drawn) [Example 10-27] | 264 | 202 | < 50 |  | 
O=C([C@H]1C[C@H]1F)N1CC2CNCC2C1 (stereo partly drawn) [Example 10-28] | 10 | 2.9 | < 50 |  | 
O=C([C@H]1C[C@@H]1F)N1CC2CNCC2C1 (stereo partly drawn) [Example 10-29] | 21.3 | 5.9 | < 50 |  | 
O=C(CCF)N1CC2CNCC2C1 (stereo not drawn) [Example 10-30] | 22.4 | 14.8 | < 50 |  | 
CC(C)C(=O)N1CC2CNCC2C1 (stereo not drawn) [Example 10-31] | 56 | 28.6 | < 50 |  | 
CC(C)(C)C(=O)N1CC2CNCC2C1 (stereo not drawn) [Example 10-32] | 15.8 | 8.1 | < 50 |  | 
O=C(C1CC(F)C1)N1CC2CNCC2C1 (stereo not drawn) [Example 10-33] | 7.2 | 18 | < 50 |  | 
O=C(CC1CC1)N1CC2CNCC2C1 (stereo not drawn) [Example 10-34] | 62.7 | 105 | < 50 |  | 
CS(=O)(=O)CC(=O)N1CC2CNCC2C1 (stereo not drawn) [Example 10-35] | 238 | 345 | < 50 |  | 
O=C([C@H]1C[C@@H]1F)N1CC2CNCC2C1 (stereo partly drawn) [Example 10-36] | 34.3 | 17.2 |  | 25300 | 
O=C([C@@H]1C[C@H]1F)N1CC2CNCC2C1 (stereo partly drawn) [Example 10-37] | 12.2 | 4.9 | < 50 |  | 
O=C([C@H]1C[C@H]1F)N1CC2CNCC2C1 (stereo partly drawn) [Example 10-38] | 9.7 | 30 | < 50 |  | 
O=C([C@@H]1C[C@@H]1F)N1CC2CNCC2C1 (stereo partly drawn) [Example 10-39] | 6.6 | 3.8 | < 50 |  | 
CC(F)(F)C(=O)N1CC2CNCC2C1 (stereo not drawn) [Example 10-40] | 8.6 | 9.8 | < 50 |  | 
CC(C)(F)C(=O)N1CC2CNCC2C1 (stereo not drawn) [Example 10-41] | 12 | 26.9 | < 50 |  | 
O=C(C1CC2CCC1C2)N1CC2CNCC2C1 (stereo not drawn) [Example 10-42] | 139 | 64.6 | < 50 |  | 
O=C(C1CC2C=CC1C2)N1CC2CNCC2C1 (stereo not drawn) [Example 10-43] | 34 | 15.8 | < 50 |  | 
O=C([C@@H]1CC2C=CC1C2)N1CC2CNCC2C1 (stereo partly drawn) [Example 10-44] | 9.3 | 3.4 | < 50 |  | 
O=C(C1C2CCCCC21)N1CC2CNCC2C1 (stereo not drawn) [Example 10-45] | 26 | 8.6 |  |  | 508
O=C(C1C[C@H]2C=C[C@@H]1CC2)N1CC2CNCC2C1 (stereo partly drawn) [Example 10-46] | 236 | 44.5 | < 50 |  | 
O=C1CCCC2=C1CC(C(=O)N1CC3CNCC3C1)CC2 (stereo not drawn) [Example 10-47] | 369 | 419 | < 50 |  | 
O=C(C1CC=CCC1c1cccnc1)N1CC2CNCC2C1 (stereo not drawn) [Example 10-48] | 999 | 345 | < 50 |  | 
O=C(C1CC=CCC1)N1CC2CNCC2C1 (stereo not drawn) [Example 10-49] | 236 | 133 | < 50 |  | 
C[C@@H]1C(C(=O)N2CC3CNCC3C2)[C@@H]1C (stereo partly drawn) [Example 10-51] | 17.6 | 44.6 |  |  | 4790
CC1C(C)C1C(=O)N1CC2CNCC2C1 (stereo not drawn) [Example 10-52] | 133 | 12.2 | < 50 |  | 
COC1CC(C(=O)N2CC3CNCC3C2)C1 (stereo not drawn) [Example 10-53] | 83.7 | 147 | < 50 |  | 
O=C(C1CC(F)(F)C1)N1CC2CNCC2C1 (stereo not drawn) [Example 10-54] | 20.3 | 5.7 | < 50 |  | 
CC(=O)N1CC2CNCC(C2)C1 [Example 10-55] | 18.7 | 20.2 |  |  | 3280
